The text below walks through data of DBAASP.

In brackets after ≈: the same amount, converted by molar mass.

Among the test systems are Escherichia coli MG1655; Candida albicans; Streptococcus pyogenes; Staphylococcus aureus; Pseudomonas aeruginosa; Proteus mirabilis.
Common to all, as to assay: ≥ marks a high value that may be exact or a test limit, other limits are often not marked, values filed in µg/mL are converted to µM
In experiment [1] the test system is Staphylococcus aureus ATCC 25923.
The test system of experiment [2] is Pseudomonas aeruginosa PAO1.
The test system of experiment [3] is Pseudomonas aeruginosa H1001.
Experiment [4] has as its system Staphylococcus aureus NCTC 10788.
Experiment [5] relates to Escherichia coli NCTC 10418.
The test system of experiment [6] is Staphylococcus aureus NCTC 12493.
Experiment [7] deals with Enterococcus faecalis NCTC 12697.
In experiment [8] the test system is Pseudomonas aeruginosa ATCC 27853.
The test system of experiment [9] is Candida albicans NCYC 1467.

Regarding `CSCC[C@H](NC(=O)[C@@H](NC(=O)[C@@H](N)CCCCN)C(C)C)C(=O)N[C@@H](CCCN=C(N)N)C(=O)N[C@@H](CCC(=O)O)C(=O)N[C@H](C(=O)N[C@@H](CC(C)C)C(=O)NCC(=O)N[C@@H](Cc1ccc(O)cc1)C(=O)N[C@@H](CCC(=O)O)C(=O)N[C@@H](CCCN=C(N)N)C(=O)N[C@@H](CC(N)=O)C(=O)N[C@@H](CO)C(=O)N[C@@H](Cc1ccc(O)cc1)C(=O)N[C@@H](CCCCN)C(N)=O)C(C)C` [KVMREVLGYERNSYK], the minimum inhibitory concentration (MIC) with Escherichia coli MG1655 was at least 128 µM; in experiment [1], above 128 µM; in the experiment on Candida albicans it was above 128 µM; in experiment [2] it was above 128 µM.
Regarding `NC(N)=NCCC[C@H](NC(=O)[C@H](CCCN=C(N)N)NC(=O)[C@H](CCCN=C(N)N)NC(=O)[C@H](CCCN=C(N)N)NC(=O)[C@H](Cc1c[nH]c2ccccc12)NC(=O)[C@H](Cc1c[nH]c2ccccc12)NC(=O)[C@H](Cc1c[nH]c2ccccc12)NC(=O)[C@H](Cc1c[nH]c2ccccc12)NC(=O)[C@H](CCCN=C(N)N)NC(=O)[C@H](CCCN=C(N)N)NC(=O)[C@H](CCCN=C(N)N)NC(=O)[C@@H](N)CCCN=C(N)N)C(=O)O` [RRRRWWWWRRRR], the MIC with Streptococcus pyogenes was 0.807 µM (≈ 1.62 µg/mL); against Staphylococcus aureus, 3.98 µM (≈ 8 µg/mL); in the experiment with Pseudomonas aeruginosa it was above 31.8 µM; in the experiment on Proteus mirabilis, 31.8 µM (≈ 64 µg/mL).
Compound `CC[C@H](C)[C@H](NC(=O)[C@H](CCCCN)NC(=O)[C@H](CCCCN)NC(=O)[C@H](Cc1cnc[nH]1)NC(=O)[C@@H](NC(=O)[C@H](CCCN=C(N)N)NC(=O)[C@H](CS)NC(=O)[C@H](CC(C)C)NC(=O)[C@H](CC(C)C)NC(=O)[C@@H](N)CCCCN)C(C)C)C(=O)O` [KLLCRVHKKI] gave an MIC in [3] of at least 40.4 µM.
As for `CSCC[C@H](NC(=O)[C@H](CC(=O)O)NC(=O)[C@@H](NC(=O)[C@@H](NC(=O)[C@H](C)NC(=O)[C@H](CC(N)=O)NC(=O)[C@H](CC(C)C)NC(=O)[C@H](C)NC(=O)[C@H](C)NC(=O)[C@H](CCCCN)NC(=O)CNC(=O)[C@H](C)NC(=O)[C@H](C)NC(=O)[C@H](CCCCN)NC(=O)CNC(=O)[C@@H](NC(=O)[C@H](CC(N)=O)NC(=O)[C@H](CCCCN)NC(=O)[C@H](CC(C)C)NC(=O)[C@H](CC(C)C)NC(=O)[C@H](CO)NC(=O)[C@H](CCCCN)NC(=O)[C@H](Cc1c[nH]c2ccccc12)NC(=O)[C@H](CC(C)C)NC(=O)[C@H](C)N)C(C)C)C(C)C)[C@@H](C)O)C(=O)N[C@H](C(=O)N[C@@H](CC(N)=O)C(=O)N[C@@H](CCC(N)=O)C(N)=O)C(C)C` [ALWKSLLKNVGKAAGKAALNAVTDMVNQ], the MIC in [4] is 4 µM (≈ 11.6 µg/mL); in experiment [5], 4 µM (≈ 11.6 µg/mL); in [6], 4 µM (≈ 11.6 µg/mL); in experiment [7], at least 64 µM; in experiment [8] it was 4 µM (≈ 11.6 µg/mL); in experiment [9] it was 4 µM (≈ 11.6 µg/mL).
For the compound `CSCC[C@H](NC(=O)[C@@H](NC(=O)[C@H](CCCCN)NC(=O)[C@H](Cc1cnc[nH]1)NC(=O)[C@H](CC(C)C)NC(=O)CN)C(C)C)C(=O)N[C@@H](CCCN=C(N)N)C(=O)N[C@@H](CCCCN)C(=O)N[C@H](C(=O)N[C@@H](CC(C)C)C(=O)NCC(=O)N[C@@H](Cc1ccc(O)cc1)C(=O)N[C@@H](CC(C)C)C(=O)N[C@@H](CCCN=C(N)N)C(=O)N[C@@H](CC(N)=O)C(=O)N[C@H](C(=O)N[C@@H](Cc1ccc(O)cc1)C(=O)N[C@@H](CCCCN)C(N)=O)C(C)C)C(C)C` [GLHKVMRKVLGYLRNVYK], the MIC against Escherichia coli MG1655 came out at 1 µM (≈ 2.17 µg/mL); in [1], 8 µM (≈ 17.4 µg/mL); with Candida albicans, 8 µM (≈ 17.4 µg/mL); in experiment [2], 8 µM (≈ 17.4 µg/mL).
For the compound `CC[C@H](C)[C@H](NC(=O)[C@H](CCCN=C(N)N)NC(=O)[C@H](CCCN=C(N)N)NC(=O)[C@@H]1CCCN1C(=O)[C@H](CCSC)NC(=O)[C@H](CCCN=C(N)N)NC(=O)[C@@H]1CCCN1C(=O)[C@H](CCCN=C(N)N)NC(=O)[C@@H]1CCCN1C(=O)[C@H](CC(C)C)NC(=O)[C@H](Cc1ccc(O)cc1)NC(=O)[C@@H]1CCCN1C(=O)[C@@H]1CCCN1C(=O)[C@H](CCCCN)NC(=O)[C@H](CC(=O)O)NC(=O)[C@@H](N)C(C)C)C(=O)N[C@@H](Cc1ccc(O)cc1)C(=O)N[C@@H](CC(N)=O)C(=O)N[C@@H](CCCN=C(N)N)C(=O)NCC(=O)O` [VDKPPYLPRPRMPRRIYNRG], the MIC in experiment [3] is 0.0886 µM (≈ 0.22 µg/mL).
As to `NCCCC[C@H](NC(=O)[C@H](CCCCN)NC(=O)[C@H](Cc1c[nH]c2ccccc12)NC(=O)[C@H](CCCCN)NC(=O)[C@H](Cc1c[nH]c2ccccc12)NC(=O)[C@H](Cc1c[nH]c2ccccc12)NC(=O)[C@H](CCCCN)NC(=O)[C@H](Cc1c[nH]c2ccccc12)NC(=O)[C@@H](N)CCCCN)C(N)=O` [KWKWWKWKK], the MIC in experiment [3] is at least 89 µM.
`CC[C@H](C)[C@H](NC(=O)[C@H](CCCN=C(N)N)NC(=O)[C@H](CCCN=C(N)N)NC(=O)[C@@H]1CCCN1C(=O)[C@H](Cc1ccc(O)cc1)NC(=O)[C@H](CCCN=C(N)N)NC(=O)[C@@H]1CCCN1C(=O)[C@H](CCCN=C(N)N)NC(=O)[C@@H]1CCCN1C(=O)[C@H](CC(C)C)NC(=O)[C@H](Cc1ccc(O)cc1)NC(=O)[C@@H]1CCCN1C(=O)[C@@H]1CCCN1C(=O)[C@H](CCCCN)NC(=O)[C@H](CC(=O)O)NC(=O)[C@@H](N)C(C)C)C(=O)N[C@@H](Cc1ccc(O)cc1)C(=O)N[C@@H](CC(N)=O)C(=O)N[C@@H](CCCN=C(N)N)C(=O)NCC(=O)O` [VDKPPYLPRPRYPRRIYNRG] displayed an MIC in [3] of 0.0597 µM (≈ 0.15 µg/mL).
As to `NC(N)=NCCC[C@H](NC(=O)[C@H](CCCN=C(N)N)NC(=O)[C@H](CCCN=C(N)N)NC(=O)[C@H](CCCN=C(N)N)NC(=O)[C@H](CCCN=C(N)N)NC(=O)[C@H](CCCN=C(N)N)NC(=O)[C@H](CCCN=C(N)N)NC(=O)[C@H](CCCN=C(N)N)NC(=O)[C@@H](N)Cc1c[nH]c2ccccc12)C(=O)O` [WRRRRRRRR], the minimal inhibitory concentration (MIC) against Streptococcus pyogenes was 2.75 µM (≈ 4 µg/mL); in the experiment on Staphylococcus aureus, 22 µM (≈ 32 µg/mL); against Pseudomonas aeruginosa, above 44 µM; in the experiment with Proteus mirabilis, at least 44 µM.
Turning to `CSCC[C@H](NC(=O)[C@@H](NC(=O)[C@H](CCCCN)NC(=O)[C@H](Cc1cnc[nH]1)NC(=O)[C@H](CC(C)C)NC(=O)CN)C(C)C)C(=O)N[C@@H](CCCN=C(N)N)C(=O)N[C@@H](CCC(=O)O)C(=O)N[C@H](C(=O)N[C@@H](CC(C)C)C(=O)NCC(=O)N[C@@H](Cc1ccc(O)cc1)C(N)=O)C(C)C` [GLHKVMREVLGY], the minimum inhibitory concentration (MIC) against Escherichia coli MG1655 is at least 128 µM; in experiment [1], above 128 µM; in the experiment on Candida albicans, above 128 µM; in experiment [2], above 128 µM.
As to `CC[C@H](C)[C@H](NC(=O)CNC(=O)CNC(=O)[C@H](C)NC(=O)[C@@H](NC(=O)[C@H](CCCCN)NC(=O)[C@@H]1CCCN1C(=O)[C@@H](NC(=O)[C@H](CC(C)C)NC(=O)[C@H](CO)NC(=O)[C@H](CC(C)C)NC(=O)[C@@H](N)Cc1ccccc1)[C@@H](C)CC)[C@@H](C)CC)C(=O)N[C@@H](C)C(=O)N[C@@H](C)C(=O)N[C@@H](CC(C)C)C(=O)N[C@@H](C)C(=O)N[C@@H](CCCCN)C(=O)N[C@@H](Cc1cnc[nH]1)C(=O)N[C@@H](CC(C)C)C(N)=O` [FLSLIPKIAGGIAALAKHL], the MIC in [4] is 4.14 µM (≈ 8 µg/mL); in experiment [5], 16.6 µM (≈ 32 µg/mL); in [6] it was 4.14 µM (≈ 8 µg/mL); in experiment [7] it was 16.6 µM (≈ 32 µg/mL); in experiment [9] it was 2.07 µM (≈ 4 µg/mL).
In the case of `CC[C@H](C)[C@H](NC(=O)[C@H](CC(C)C)NC(=O)[C@H](C)NC(=O)[C@H](CO)NC(=O)[C@@H](NC(=O)[C@H](CC(C)C)NC(=O)[C@@H](N)CC(N)=O)C(C)C)C(=O)N[C@@H](CCC(=O)O)C(=O)NCC(=O)N[C@@H](CCCN=C(N)N)C(=O)N[C@@H](CCCCN)C(=O)N[C@@H](Cc1ccc(O)cc1)C(=O)N[C@@H](CC(C)C)C(=O)N[C@@H](CCCCN)C(=O)N[C@@H](CC(N)=O)C(=O)N[C@H](C(=O)N[C@@H](CC(C)C)C(=O)N[C@@H](CCCCN)C(=O)O)C(C)C` [NLVSALIEGRKYLKNVLK], the minimum inhibitory concentration (MIC) in [4] is at least 62.2 µM; in experiment [5], at least 62.2 µM; in experiment [8] it was above 249 µM; in experiment [9], 31.1 µM (≈ 64 µg/mL).

As usually defined, the MIC is the smallest concentration in the dilution series that meets the test's criterion for growth inhibition.
